Assay [1] addresses hmGluR5a receptor (Homo sapiens (Human), UniProt P41594). Briefly: Calcium Flux Assay. The note with it: hmGluR5a/L38-20 cells, glutamate-evoked [Ca2+]i. The format is cell-based. Here is the method: The activity of compounds was examined against the hmGluR5a receptor stably expressed in mouse fibroblast Ltk− cells (the hmGluR5a/L38-20 cell line). See generally Daggett et al., Neuropharmacology 34:871-886 (1995). Receptor activity was detected by changes in intracellular calcium ([Ca^2+]i) measured using the fluorescent calcium-sensitive dye, fura-2. hmGluR5a/L38-20 cells were plated onto 96-well plates, and loaded with 3 µM fura-2 for 1 h. Unincorporated dye was washed from the cells, and the cell plate was transferred to a custom-built 96-channel fluorimeter (SIBIA-SAIC, La Jolla, Calif.) which is integrated into a fully automated plate handling and liquid delivery system. Cells were excited at 350 and 385 nm with a xenon source combined with optical filters. Emitted light was collected from the sample through a dichroic mirror and a 510 nm interference filter and directed into a cooled CCD camera (Princeton Instruments). Image pairs were captured approximately every 1 s, and ratio images were generated after background subtraction. After a basal reading of 20 s, an EC80 concentration of glutamate ([…]) was added to the well, and the response evaluated for another 60 s. The glutamate-evoked increase in [Ca^2+]i in the presence of the screening compound was compared to the response of glutamate alone (the positive control).

For assay [2], the target named is metabotropic glutamate receptor subtype 5 (Rattus norvegicus (Rat), UniProt P31424). Briefly: [3H]-mGluR5 Antagonist Binding to Rodent Brain Membranes. As to the method: In accordance with Anderson J J, Rao S P, Rowe B, Giracello D R, Holtz G, Chapman D F, Tehrani L, Bradbury M J, Cosford N D, Varney M A, [^3H]Methoxymethyl-3-[(2-methyl-1,3-thiazol-4-yl)ethynyl]pyridine binding to metabotropic glutamate receptor subtype 5 in rodent brain: in vitro and in vivo characterization. J Pharmacol Exp Ther. 2002 December; 303 (3):1044-51, membranes were prepared (as described in Ransom R W and Stec N L (1988) Cooperative modulation of [^3H]MK-801 binding to the N-methyl-D-aspartate receptor-ion channel complex by L-glutamate, glycine, and polyamines. J Neurochem 51:830-836) using whole rat brain, or mGlu5^+/+ or mGlu5^−/− whole mouse brain.
Chain of metabotropic glutamate receptor subtype 5 (P31424 21-1203): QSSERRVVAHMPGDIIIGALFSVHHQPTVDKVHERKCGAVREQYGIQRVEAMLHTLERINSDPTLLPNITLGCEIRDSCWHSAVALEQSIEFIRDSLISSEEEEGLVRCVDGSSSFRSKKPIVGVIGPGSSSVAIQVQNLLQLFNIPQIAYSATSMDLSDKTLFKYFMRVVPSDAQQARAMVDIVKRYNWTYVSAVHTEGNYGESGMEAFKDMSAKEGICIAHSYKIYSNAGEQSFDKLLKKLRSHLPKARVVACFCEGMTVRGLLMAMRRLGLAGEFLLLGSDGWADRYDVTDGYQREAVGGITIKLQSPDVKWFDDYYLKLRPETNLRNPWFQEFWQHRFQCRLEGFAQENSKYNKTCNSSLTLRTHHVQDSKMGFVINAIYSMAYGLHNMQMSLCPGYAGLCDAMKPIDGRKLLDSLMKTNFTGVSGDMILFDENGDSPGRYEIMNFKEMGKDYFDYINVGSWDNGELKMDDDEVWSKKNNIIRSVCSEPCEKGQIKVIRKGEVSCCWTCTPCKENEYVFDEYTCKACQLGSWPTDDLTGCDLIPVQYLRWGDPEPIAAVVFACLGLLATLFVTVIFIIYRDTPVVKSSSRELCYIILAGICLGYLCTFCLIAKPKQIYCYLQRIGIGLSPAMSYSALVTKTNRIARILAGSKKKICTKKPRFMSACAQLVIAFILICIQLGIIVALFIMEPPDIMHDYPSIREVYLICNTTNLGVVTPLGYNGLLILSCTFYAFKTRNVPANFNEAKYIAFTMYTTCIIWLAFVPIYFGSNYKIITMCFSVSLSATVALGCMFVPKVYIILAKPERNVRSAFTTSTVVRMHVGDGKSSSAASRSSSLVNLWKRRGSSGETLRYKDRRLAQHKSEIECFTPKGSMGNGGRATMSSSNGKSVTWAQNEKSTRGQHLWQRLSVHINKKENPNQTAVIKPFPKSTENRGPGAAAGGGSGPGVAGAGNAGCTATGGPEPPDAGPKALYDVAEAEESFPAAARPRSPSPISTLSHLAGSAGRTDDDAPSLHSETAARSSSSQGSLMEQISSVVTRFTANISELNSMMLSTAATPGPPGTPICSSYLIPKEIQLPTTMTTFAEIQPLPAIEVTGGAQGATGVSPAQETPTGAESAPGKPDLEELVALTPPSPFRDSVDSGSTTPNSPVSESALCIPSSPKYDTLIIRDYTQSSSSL
Binding assays were performed as described in Schaffhauser H, Richards J G, Cartmell J, Chaboz S, Kemp J A, Klingelschmidt A, Messer J, Stadler H, Woltering T and Mutel V (1998) In vitro binding characteristics of a new selective group II metabotropic glutamate receptor radioligand, [^3H]LY354740, in rat brain. Mol Pharmacol 53:228-233) at room temperature with slight modifications. Briefly, membranes were thawed and washed once with assay buffer (50 mM HEPES, 2 mM MgCl2, pH 7.4), followed by centrifugation at 40,000×g for 20 min. The pellet was resuspended in assay buffer and briefly homogenized with a Polytron.
For protein linearity experiments, increasing concentrations of membrane protein were added to 96-well plates in triplicate and binding was initiated by addition of 20 nM [^3H]methoxymethyl-3-[(2-methyl-1,3-thiazol-4-yl)ethynyl]pyridine. The assay was incubated for 2 h and non-specific binding was determined using 10 μM MPEP. The binding was terminated by rapid filtration through glass-fiber filters (Unifilter-96 GF/B plate, Packard) using a 96-well plate Brandel cell harvester. Following addition of scintillant, the radioactivity was determined by liquid scintillation spectrometry. Protein measurements were performed by BioRad-DC Protein assay using bovine serum albumin as the standard.
Saturation binding experiments were performed in triplicate with increasing concentrations of [^3H]methoxymethyl-3-[(2-methyl-1,3-thiazol-4-yl)ethynyl]pyridine (1 pM to 100 nM). The time course of association was measured by the addition of 10 nM [^3H]methoxymethyl-3-[(2-methyl-1,3-thiazol-4-yl)ethynyl]pyridine to the membranes at different time points (0-240 min), followed by filtration. Dissociation was measured by the addition of 100 μM unlabeled methoxymethyl-3-[(2-methyl-1,3-thiazol-4-yl)ethynyl]pyridine at different time points to membranes previously incubated for 3 h with 10 nM [^3H]methoxymethyl-3-[(2-methyl-1,3-thiazol-4-yl)ethynyl]pyridine. For competition experiments, 100 μg membrane protein and 10 nM [^3H]methoxymethyl-3-[(2-methyl-1,3-thiazol-4-yl)ethynyl]pyridine was added to wells containing increasing concentration of the test compound in duplicate (methoxymethyl-3-[(2-methyl-1,3-thiazol-4-yl)ethynyl]pyridine or MPEP). [^3H]-3-Methoxy-5-(pyridin-2-ylethynyl)pyridine may also be used as the radioligand in the procedure described above. (See, Cosford, N. D. P.; Roppe, J.; Tehrani, L.; Seiders, T. J.; Schweiger, E. J. et al. [3H]-Methoxymethyl-MTEP and [3H]-methoxy-PEPy): Potent and selective radioligands for the Metabotropic Glutamate Subtype 5 (mGlu5) Receptor. Bioorg. Med. Chem. Lett. 2003, 13, 351-354.)

pIC50, pKi: −log10 of the molar value. Counter-ions that a name gives are not always drawn.

Chain of hmGluR5a receptor (P41594 other isoform, or with tags, fused parts or gaps): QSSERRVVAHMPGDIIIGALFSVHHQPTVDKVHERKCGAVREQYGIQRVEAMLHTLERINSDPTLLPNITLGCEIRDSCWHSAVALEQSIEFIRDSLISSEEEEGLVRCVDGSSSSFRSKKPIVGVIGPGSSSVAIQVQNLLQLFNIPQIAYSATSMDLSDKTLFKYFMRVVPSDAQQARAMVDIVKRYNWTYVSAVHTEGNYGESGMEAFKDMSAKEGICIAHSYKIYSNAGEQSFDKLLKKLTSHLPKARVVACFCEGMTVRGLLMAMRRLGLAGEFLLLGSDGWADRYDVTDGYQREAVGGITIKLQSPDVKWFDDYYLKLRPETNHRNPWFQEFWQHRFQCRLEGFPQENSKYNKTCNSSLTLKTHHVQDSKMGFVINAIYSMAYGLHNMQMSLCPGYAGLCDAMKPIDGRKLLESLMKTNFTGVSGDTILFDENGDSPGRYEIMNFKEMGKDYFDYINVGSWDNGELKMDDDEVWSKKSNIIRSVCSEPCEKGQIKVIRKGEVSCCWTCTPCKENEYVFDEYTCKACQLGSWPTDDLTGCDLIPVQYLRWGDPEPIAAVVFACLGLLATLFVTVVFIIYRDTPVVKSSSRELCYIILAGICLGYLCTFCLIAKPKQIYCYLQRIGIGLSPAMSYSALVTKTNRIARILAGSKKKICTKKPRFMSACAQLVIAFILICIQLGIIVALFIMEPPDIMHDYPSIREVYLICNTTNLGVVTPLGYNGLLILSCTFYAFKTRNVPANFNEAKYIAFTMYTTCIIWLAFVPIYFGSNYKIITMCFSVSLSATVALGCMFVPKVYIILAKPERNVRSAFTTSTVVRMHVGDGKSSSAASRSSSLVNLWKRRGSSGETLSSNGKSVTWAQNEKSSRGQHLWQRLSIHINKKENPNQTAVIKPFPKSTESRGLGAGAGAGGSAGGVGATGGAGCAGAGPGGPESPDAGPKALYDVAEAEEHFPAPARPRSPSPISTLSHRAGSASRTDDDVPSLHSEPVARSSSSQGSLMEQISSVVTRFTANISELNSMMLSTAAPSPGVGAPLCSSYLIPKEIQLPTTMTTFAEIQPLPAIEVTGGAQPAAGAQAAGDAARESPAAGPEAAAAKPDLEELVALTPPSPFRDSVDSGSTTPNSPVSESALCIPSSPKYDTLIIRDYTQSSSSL

What is called pIC50 is −log10 of the IC50, conventionally taken in molar units. A word on the pKi: it is −log10 of the Ki, conventionally taken in molar units. As to `Cc1nc(C#Cc2ccc(-c3ccccc3F)nc2)cs1` [Example 2, 2-(2-fluorophenyl)-5-[(2-methyl-1,3-thiazol-4-yl)ethynyl]pyridine], the negative logarithm of the IC50 (pIC50) in assay [1] is 9.00. In assay [2], the pKi is 8.70.

As to `Cc1nc(C#Cc2ccc(-c3cccc(F)c3)nc2)cs1` [Example 3, 2-(3-fluorophenyl)-5-[(2-methyl-1,3-thiazol-4-yl)ethynyl]pyridine], the pIC50 in assay [1] is 9.05. The negative logarithm of the Ki (pKi) in assay [2] is 8.57.

On to `Cc1nc(C#Cc2ccc(-c3ccccc3C#N)nc2)cs1` [Example 4, 2-{5-[(2-methyl-1,3-thiazol-4-yl)ethynyl]pyridin-2-yl}benzonitrile], for which, in assay [1], the pIC50 was 8.66.

With `Cc1nc(C#Cc2ccc(-c3ccccc3C)nc2)cs1` [Example 5, 2-(2-methylphenyl)-5-[(2-methyl-1,3-thiazol-4-yl)ethynyl]pyridine], in assay [1], the pIC50 is 8.20. Further, the pKi in assay [2] was 9.00.

As to `COc1ccc(F)cc1-c1ccc(C#Cc2csc(C)n2)cn1` [Example 6, 2-(5-fluoro-2-methoxyphenyl)-5-[(2-methyl-1,3-thiazol-4-yl)ethynyl]pyridine], the pIC50 in assay [1] is 8.36. In assay [2], the negative-log Ki (pKi) was 8.92.

Take `Cc1nc(C#Cc2ccc(-c3ccccc3Cl)nc2)cs1` [Example 7, 2-(2-chlorophenyl)-5-[(2-methyl-1,3-thiazol-4-yl)ethynyl]pyridine]: in assay [1], the pIC50 was 8.96. In assay [2], this molecule gave a negative-log Ki (pKi) of 9.15.

Turning to `COc1ccccc1-c1ccc(C#Cc2csc(C)n2)cn1` [Example 8, 2-(2-methoxyphenyl)-5-[(2-methyl-1,3-thiazol-4-yl)ethynyl]pyridine], in assay [1], the negative logarithm of the IC50 (pIC50) was 9.00. Further, the negative-log Ki (pKi) in assay [2] was 9.05.

Take `Cc1nc(C#Cc2ccc(-c3ccc(F)cc3C)nc2)cs1` [Example 9, 2-(4-fluoro-2-methylphenyl)-5-[(2-methyl-1,3-thiazol-4-yl)ethynyl]pyridinium trifluoroacetate]: the negative logarithm of the IC50 (pIC50) in assay [1] was 8.96.

As for `COc1c(F)cc(F)cc1-c1ccc(C#Cc2csc(C)n2)cn1` [Example 10, 2-(3,5-difluoro-2-methoxyphenyl)-5-[(2-methyl-1,3-thiazol-4-yl)ethynyl]pyridinium trifluoroacetate], the negative-log IC50 (pIC50) in assay [1] was 9.15.

Turning to `COc1cc(F)ccc1-c1ccc(C#Cc2csc(C)n2)cn1` [Example 11, 2-(4-fluoro-2-methoxyphenyl)-5-[(2-methyl-1,3-thiazol-4-yl)ethynyl]pyridinium trifluoroacetate], the pIC50 in assay [1] was 8.89.

With `Cc1nc(C#Cc2ccc(-c3cc(F)ccc3C)nc2)cs1` [Example 12, 2-(5-fluoro-2-methylphenyl)-5-[(2-methyl-1,3-thiazol-4-yl)ethynyl]pyridinium trifluoroacetate], the pIC50 in assay [1] was 9.22. Further, the pKi in assay [2] was 8.96.

Turning to `Cc1nc(C#Cc2cnc(-c3ccccc3C)nc2)cs1` [Example 13, 2-(2-methylphenyl)-5-[(2-methyl-1,3-thiazol-4-yl)ethynyl]pyrimidine], the pIC50 in assay [1] was 9.22. Moreover, in assay [2], the pKi is 9.22.

Take `CSc1ccccc1-c1ncc(C#Cc2csc(C)n2)cn1` [Example 14, 5-[(2-methyl-1,3-thiazol-4-yl)ethynyl]-2-[2-(methylthio)phenyl]pyrimidine]: the pIC50 in assay [1] is 9.10. For the same molecule, the pKi in assay [2] was 8.12.

`Cc1nc(C#Cc2cnc(-c3ccccc3Cl)nc2)cs1` [Example 15, 2-(2-chlorophenyl)-5-[(2-methyl-1,3-thiazol-4-yl)ethynyl]pyrimidine]: the pIC50 in assay [1] is 9.00. This molecule also showed a pKi in assay [2] of 8.59.

Regarding `Cc1nc(C#Cc2cnc(-c3cccc(C)c3C)nc2)cs1` [Example 16, 2-(2,3-dimethylphenyl)-5-[(2-methyl-1,3-thiazol-4-yl)ethynyl]pyrimidine], in assay [1], the pIC50 was 9.40. This molecule also had a negative logarithm of the Ki (pKi) in assay [2] of 8.07.

On to `Cc1nc(C#Cc2ccc(-n3ccc4cccnc43)nc2)cs1` [Example 17, 1-{5-[(2-methyl-1,3-thiazol-4-yl)ethynyl]pyridin-2-yl}-1H-pyrrolo[2,3-b]pyridine], for which the pIC50 in assay [1] was 9.40. Moreover, in assay [2], the negative-log Ki (pKi) was 8.42.

Turning to `Cc1nc(C#Cc2ccc(N3CCCCC3)nc2)cs1` [Example 19, 5-[(2-methyl-1,3-thiazol-4-yl)ethynyl]-2-piperidin-1-ylpyridine], the negative logarithm of the IC50 (pIC50) in assay [1] was 8.74. The molecule also showed a negative logarithm of the Ki (pKi) in assay [2] of 8.55.

As to `Cc1nc(C#Cc2ccc(N3CCCC3C)nc2)cs1` (stereo not shown) [Example 20, 2-(2-methylpyrrolidin-1-yl)-5-[(2-methyl-1,3-thiazol-4-yl)ethynyl]pyridine], the pIC50 in assay [1] is 9.00. This molecule gave a pKi in assay [2] of 8.85.

For `Cc1nc(C#Cc2cnc(N3CCCC3C)nc2)cs1` (stereo not shown) [Example 21, 2-(2-methylpyrrolidin-1-yl)-5-[(2-methyl-1,3-thiazol-4-yl)ethynyl]pyrimidine], the pIC50 in assay [1] was 8.82. Besides, the pKi in assay [2] is 8.82.

For `Cc1nc(C#Cc2cnc(NC(C)(C)C)nc2)cs1` [Example 22, N-(tert-butyl)-5-[(2-methyl-1,3-thiazol-4-yl)ethynyl]pyrimidin-2-amine], the pIC50 in assay [1] was 8.92. For the same molecule, the negative-log Ki (pKi) in assay [2] is 9.05.

On to `Cc1nc(C#Cc2cnc(N3CCCCC3)nc2)cs1` [Example 24, 5-[(2-methyl-1,3-thiazol-4-yl)ethynyl]-2-piperidin-1-ylpyrimidine], for which the negative logarithm of the IC50 (pIC50) in assay [1] was 9.52. The molecule further had a pKi in assay [2] of 8.59.

With `Cc1nc(C#Cc2cnc(OC(C)C)nc2)cs1` [Example 25, 2-isopropoxy-5-[(2-methyl-1,3-thiazol-4-yl)ethynyl]pyrimidine], the negative-log IC50 (pIC50) in assay [1] is 8.85. In assay [2], the negative logarithm of the Ki (pKi) was 8.05.

`Cc1nc(C#Cc2ccc(OC(C)C)nc2)cs1` [Example 26, 2-isopropoxy-5-[(2-methyl-1,3-thiazol-4-yl)ethynyl]pyridinium trifluoroacetate]: in assay [1], the negative-log IC50 (pIC50) was 10.00. The negative-log Ki (pKi) in assay [2] is 8.70.

On to `Cc1nc(C#Cc2ccc(OC(C)(C)C)nc2)cs1` [Example 27, 2-tert-butoxy-5-[(2-methyl-1,3-thiazol-4-yl)ethynyl]pyridine], for which the pIC50 in assay [1] is 8.85. Further, the pKi in assay [2] was 9.00.

As for `Cc1nc(C#Cc2ccc(SC(C)(C)C)nc2)cs1` [Example 28, 2-(tert-butylthio)-5-[(2-methyl-1,3-thiazol-4-yl)ethynyl]pyridine], in assay [1], the pIC50 was 8.77. Besides, the pKi in assay [2] was 9.05.

In the case of `Cc1nc(C#Cc2cnc(SC(C)(C)C)nc2)cs1` [Example 29, 2-(tert-butylthio)-5-[(2-methyl-1,3-thiazol-4-yl)ethynyl]pyrimidine], the pIC50 in assay [1] is 9.30. The molecule also gave a pKi in assay [2] of 8.00.

With `Cc1nc(C#Cc2ccc(C3CCCCC3)nc2)cs1` [Example 30, 2-cyclohexyl-5-[(2-methyl-1,3-thiazol-4-yl)ethynyl]pyridine], in assay [1], the pIC50 is 8.66. In assay [2], this molecule had a pKi of 8.64.

With `Cc1nc(C#Cc2ccc(-c3cccc(-n4cccn4)c3)nc2)cs1` [Example 87], in assay [1], the pIC50 was 8.70.

`Cc1nc(C#Cc2cnc(-c3ccccc3F)nc2)cs1` [Example 106] had a negative logarithm of the Ki (pKi) in assay [2] of 8.22.

The record behind these values is patent US8609852B2, “Thiazolyl mGluR5 antagonists and methods for their use” (Merck Sharp & Dohme Corp., priority 2004, dated 2013).
